PubChem BioAssay (NCI)
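Grown in 96-well plates, cells were treated for 48 hours with each compound at five concentrations. Insufficient inhibition: endpoint recorded as highest concentration tested. At the TGI there is no net growth.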

Key:
Experiment in all cases: NCI tumour cell line growth inhibition, 48 h
[1] = tested on: OVCAR-4 ovarian
[2] = tested on: HT29 colon
[3] = tested on: HCT-116 colon
[4] = tested on: HCC-2998 colon
[5] = tested on: A498 renal
[6] = tested on: RXF 393 renal
[7] = tested on: SK-MEL-5 melanoma
[8] = tested on: DU-145 prostate
[9] = tested on: NCI-H226 lung
[10] = tested on: SNB-75 CNS
[11] = tested on: HCT-15 colon
[12] = tested on: SF-539 CNS
[13] = tested on: MOLT-4 leukemia
[14] = tested on: SN12C renal
[15] = tested on: COLO 205 colon
[16] = tested on: NCI-H23 lung
[17] = tested on: SF-268 CNS
[18] = tested on: HL-60(TB) leukemia
[19] = tested on: 786-0 renal
[20] = tested on: SNB-19 CNS
[21] = tested on: HOP-62 NSCLC
[22] = tested on: MDA-MB-435
[23] = tested on: MDA-MB-231 breast
[24] = tested on: CCRF-CEM leukemia
[25] = tested on: OVCAR-3 ovarian
[26] = tested on: MDA-N
[27] = tested on: U251 CNS
[28] = tested on: K-562 leukemia
[29] = tested on: HOP-92 NSCLC
[30] = tested on: ACHN renal
[31] = tested on: KM12 colon
[32] = tested on: CAKI-1 renal
[33] = tested on: UACC-62 melanoma
[34] = tested on: LOX IMVI melanoma
[35] = tested on: IGROV1 ovarian
[36] = tested on: PC-3 prostate
[37] = tested on: HS 578T breast
[38] = tested on: UO-31 renal
[39] = tested on: MALME-3M melanoma
[40] = tested on: MCF7 breast
[41] = tested on: EKVX NSCLC
[42] = tested on: UACC-257 melanoma
[43] = tested on: NCI-H460 lung
[44] = tested on: SK-OV-3 ovarian
[45] = tested on: SK-MEL-28 melanoma
[46] = tested on: OVCAR-8 ovarian
[47] = tested on: RPMI-8226 leukemia
[48] = tested on: A549 NSCLC
[49] = tested on: M14 melanoma
[50] = tested on: NCI-H522 lung
[51] = tested on: OVCAR-5 ovarian
[52] = tested on: SW-620 colon
[53] = tested on: TK-10 renal
[54] = tested on: BT-549 breast
[55] = tested on: NCI/ADR-RES ovarian
[56] = tested on: T-47D breast
[57] = tested on: SK-MEL-2 melanoma
[58] = tested on: SF-295 CNS
[59] = tested on: SR leukemia

Measured: TGI

COc1ccc(/C=C2\CC3C4CC=C5C[C@@H](O)CC[C@]5(C)C4CC[C@]3(C)C2=O)cc1OC (stereo partly drawn)
36.2 µM: [47]
83.4 µM: [13]
57.6 µM: [50]
93.6 µM: [5]
50.4 µM: [58]
51.9 µM: [25]
21.9 µM: [7]
90.3 µM: [38]
47 µM: [15]
not listed: [59]
> 100 µM: all other assays above

COc1cc(N(CCC#N)CCC#N)ccc1/C(N=Nc1cccc(C)c1)=N\NC(=O)c1ccc(C)cc1
63 µM: [30]
44.1 µM: [5]
not listed: [10] | [12] | [59]
> 100 µM: all other assays above

C[Si](C)(C)C#CCOC=C1CC1
not listed: [5] | [22] | [25] | [29] | [47]
> 100 µM: all other assays above

CC(C)[C@H]1NC(=O)[C@H]2N=C(O[C@@H]2C)[C@@H]2CCCN2C(=O)[C@H](Cc2ccccc2)NC(=O)[C@@H]2COC(=N2)[C@@H](Cc2ccccc2)NC(=O)[C@@H]2COC1=N2
75.6 µM: [10]
not listed: [5] | [29] | [43] | [59]
> 100 µM: all other assays above
